How the values were obtained:
Type in all cases: functional
Pseudomonas aeruginosa = assay: In vitro antibacterial activity against Pseudomonas aeruginosa 1911.
Escherichia coli = assay: In vitro antibacterial activity against Escherichia coli 1850.
Staphylococcus aureus [1] = assay: In vitro antibacterial activity against Staphylococcus aureus 663.
Clostridium perfringens = assay: In vitro antibacterial activity against Clostridium perfringens 615.
Enterococcus faecalis = assay: In vitro antibacterial activity against […] faecalis 850E.
Staphylococcus aureus [2] = assay: In vitro antibacterial activity against Staphylococcus aureus 1131.
Staphylococcus aureus [3] = assay: In vitro antibacterial activity against Staphylococcus aureus 853.

Row | SMILES | MIC (Pseudomonas aeruginosa) [µg/mL] | MIC (Escherichia coli) [µg/mL] | MIC (Staphylococcus aureus [1]) [µg/mL] | MIC (Clostridium perfringens) [µg/mL] | MIC (Enterococcus faecalis) [µg/mL] | MIC (Staphylococcus aureus [2]) [µg/mL] | MIC (Staphylococcus aureus [3]) [µg/mL]
1 | C[C@@H](O)[C@H]1C(=O)N2C(C(=O)O)=C(SCCNC=N)C[C@H]12.O [IMIPENEM] | 4 | 0.5 | 0.06 | 0.03 | 2 | 4 | 0.12
2 | C[C@@H](O)[C@H]1C(=O)N2C(C(=O)[O-])=C3CCC[C@H]3[C@H]12.[Na+] | > 32 | 2 | 1 | 1 | 16 | 8 | 0.5
3 | CO[C@H]1CC[C@H]2C1=C(C(=O)[O-])N1C(=O)[C@H]([C@@H](C)O)[C@@H]21.[Na+] | 32 | 0.5 | 0.25 | 0.12 | 2 | 8 | 0.5

Source: ChEMBL document CHEMBL1128984, “Synthesis and biological activity of novel tricyclic -lactams” (1996)
